Measurements taken from PubChem BioAssay AID743142 (Broad Institute, 2013).
Records with an inconclusive call do not appear. Activity calls are given as the source filed them.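 How the source made its calls: active means sample lowering the cell viability signal whose fitted half-effect dose is at or below its top tested dose; inconclusive means flat fit with 30 to 70 percent loss, or poor fit; inactive means the rest, including effects in the wrong direction.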

Test system: not listed separately
Experiment: HEK293 cell cytotoxicity, dose response, cytotoxicity control, ATP luminescence, dry powder, Set6 (AID 743142)
Settings: HEK293T viability, ATP luminescence (CellTiter-Glo), 72 h; at 12 µM (top of the series)

Row | SMILES | activity change, negative = cytotoxicity
1 | CC(NC(=O)CCNC(=O)c1ccc(Cl)cc1)c1ccc(F)cc1 (stereo unspecified) | 41.6% (inactive)

Same assay, conditions: HEK293T viability, ATP luminescence (CellTiter-Glo), 72 h; at 26 µM (top of the series)

Row | SMILES | activity change, negative = cytotoxicity
2 | O=C(NC1CCc2ccccc21)C1CCCN(C(=O)c2ccc(Cl)cc2)C1 (stereo unspecified) | -34.8% (inactive)
3 | COc1ccccc1C(=O)NCCC(=O)NC1CCCc2ccccc21 (stereo unspecified) | -2.09% (inactive)
4 | O=C(CCNC(=O)c1ccccc1)N[C@@H]1CCCc2ccccc21 | -39.6% (inactive)
5 | O=C(CCNC(=O)c1ccccc1Cl)NC1CCCc2ccccc21 (stereo unspecified) | 10.9% (inactive)
6 | NCCC(=O)N[C@@H]1CCCc2ccccc21 | 27.3% (inactive)
7 | CC(NC(=O)C1CCCN(C(=O)c2ccc(Cl)cc2)C1)c1ccccc1 (stereo unspecified) | 64.4% (inactive)
8 | O=C(CNC(=O)c1ccc(OC(F)(F)F)cc1)N[C@@H]1CCCc2ccccc21 | 1.28% (inactive)
9 | CN(C(=O)CCNC(=O)c1ccc(F)cc1F)C1CCCc2ccccc21 (stereo unspecified) | 7.5% (inactive)
10 | O=C(CCCNC(=O)c1ccc(C(F)(F)F)cc1)N[C@@H]1CCCc2ccccc21 | 49.1% (inactive)
11 | CC(CC(=O)N(C)C1CCCc2ccccc21)NC(=O)c1ccccc1 (stereo unspecified) | -30% (inactive)
12 | CC(CC(=O)NC1CCCc2ccccc21)NC(=O)c1ccccc1 (stereo unspecified) | -38.5% (inactive)
13 | CC(c1ccccc1)N(C)C(=O)CCNC(=O)c1ccc(Cl)cc1 (stereo unspecified) | -5.44% (inactive)
14 | CC(C)(C)OC(=O)NCCC(=O)N[C@@H]1CCCc2ccccc21 | -2.95% (inactive)
15 | C[C@@H](NC(=O)CCNC(=O)c1ccc(Cl)cc1)c1ccccc1 | 19.9% (inactive)
16 | O=C(NC1CCOc2ccccc21)C1CCCN(C(=O)c2ccc(Cl)cc2)C1 (stereo unspecified) | -5.89% (inactive)
17 | O=C(CCCNC(=O)c1ccc(Cl)cc1)N[C@@H]1CCCc2ccccc21 | 2.4% (inactive)
18 | CC(C)(C)OC(=O)NCCC(=O)N[C@H]1CCCc2ccccc21 | -17.3% (inactive)
19 | O=C(CNC(=O)c1ccc(Cl)c(Cl)c1)N[C@@H]1CCCc2ccccc21 | -24.4% (inactive)
20 | O=C(CNC(=O)c1ccc(Cl)cc1)N[C@@H]1CCCc2ccccc21 | -4.76% (inactive)
21 | CC(=O)NCCC(=O)N[C@@H]1CCCc2ccccc21 | 10.6% (inactive)
22 | O=C(CCNC(=O)c1ccc(Cl)cc1)N[C@H]1CCCc2ccccc21 | -23.6% (inactive)
23 | CC(NC(=O)CCNC(=O)c1ccc(Cl)cc1)c1ccc2c(c1)OCO2 (stereo unspecified) | 21.1% (inactive)
24 | Cc1cccc(C(=O)NCCC(=O)NC2CCCc3ccccc32)c1 (stereo unspecified) | -15.8% (inactive)
25 | COc1ccccc1C(C)NC(=O)CCNC(=O)c1ccc(Cl)cc1 (stereo unspecified) | -9.14% (inactive)
26 | O=C(CCCNC(=O)c1ccc(Cl)c(Cl)c1)N[C@@H]1CCCc2ccccc21 | 8.38% (inactive)
27 | O=C(CNC(=O)c1ccc(C(F)(F)F)cc1)N[C@@H]1CCCc2ccccc21 | -8.54% (inactive)
28 | COc1cc(C(=O)NCCC(=O)NC2CCCc3ccccc32)cc(OC)c1OC (stereo unspecified) | -40.5% (inactive)
29 | O=C(CCNC(=O)c1ccc(Cl)cc1)NC1CCCCC1 | 13% (inactive)
30 | O=C(CCCNC(=O)c1ccc(OC(F)(F)F)cc1)N[C@@H]1CCCc2ccccc21 | 48.5% (inactive)

Test system: HEK293T viability, ATP luminescence (CellTiter-Glo), 72 h
Experiment: as above
Settings: not given

Row | SMILES | AC50 [µM]
31 | O=C(CCNC(=O)c1ccc(Cl)cc1)NC1CCCc2ccccc21 (stereo unspecified) | 7.73
